Test results from patent publication US20210139966A1, “ENHANCEMENT OF NUCLEIC ACID POLYMERIZATION BY MINOR GROOVE BINDING MOIETIES” (priority 2018, published 2021).
Structures can show the parent of a compound that is named as a salt. Where two headings read alike, the source gives them in different places.

How the values were obtained:
DNA polymerase [1] = assay: Primer extension reaction with XNTPs as substrates (additive screen and MGB titration), gel electrophoresis of Xpandomer products; format: biochemical; settings: for enhancement of XNTP polymerization in titration: FIG. 5, MGB ranging from 75 to 600 μM, highest concentration most robust enhancement; for amount of MGB demonstrating reliable enhancement of XNTP polymerization: further titration experiments, FIG. 6
Text: However, initial transcription of the sequence of the natural DNA template onto the measurable Xpandomer relies on the ability of DNA polymerase to utilize XNTPs as substrates (the generalized structure of an XNTP is discussed herein with reference to FIG. 1A and FIG. 2). […] In an effort to improve the efficiency and accuracy of XNTP polymerization into Xpandomers, a wide variety of additives was screened for the ability to enhance DNA polymerase primer extension reactions using XNTPs as substrates.
A typical primer extension reaction includes the following reagents: 2 pmol primer, 2.2 pmol 45 mer oligonucleotide template, 50 pmol of each XNTP (XATP, XCTP, XGTP, and XTTP), 50 mM Tris HCl, pH 6.79, 200 mM NaCl, 20% PEG, 5% NMS, 0.5 nmol polyphosphate 60.19, 0.3 mM MnCl2, and 0.6 μg of purified recombinant DNA polymerase protein. Reactions are run for 1 hr at 23° C. Reaction products (i.e. constrained Xpandomers) are treated to cleave the phosphoramidate bonds, thereby generating linearized Xpandomers. Reaction products are analyzed using gel electrophoresis on 4-12% acrylamide gels to resolve and visualize Xpandomer products of different lengths. For the additive screen, reaction additives were typically tested in the micro to millimolar range.
Using the primer extension reaction described in Example 1, titration experiments were performed to determine the optimal amount of MGB for enhancement of XNTP polymerization.

DNA polymerase [2] = assay: Sequencing by Expansion (SBX) of primer extension products, nanopore reads aligned to a 45 mer template; format: biochemical; settings: FIG. 7B, no additive control not accurate past base 20
Procedure: To investigate the accuracy of enhancement of XNTP polymerization, primer extension products were sequenced using the SBX protocol. Briefly, the constrained Xpandomer products of XNTP polymerization are cleaved to generate linearized Xpandomers. This is accomplished by first quenching the extension reaction with a solution containing 100 mM EDTA, 2 mM THPTA, and 2% Tween-20. Then the sample is subjected to amine modification with a solution of 1 M NaHCO3 and 1 M succinic anhydride in DMF. Cleavage of the phosphoramidate bonds is carried out with 37% HCl and linearized Xpandomers are purified with QIAquick columns (QIAGEN, Inc.).
For sequencing, protein nanopores are prepared by inserting α-hemolysin into a DPhPE/hexadecane bilayer member in buffer B1, containing 2 M NH4Cl and 100 mM HEPES, pH 7.4. The cis well is perfused with buffer B2, containing 0.4 M NH4Cl, 0.6 M GuCl, and 100 mM HEPES, pH 7.4. The Xpandomer sample is heated to 70° C. for 2 minutes, cooled completely, then a 2 μL sample is added to the cis well. A voltage pulse of 90 mV/390 mV/10 μs is then applied and data is acquired via Labview acquisition software.
Sequence data was analyzed by histogram display of the population of sequence reads from a single SBX reaction. […]

[3] = additive screen, primer extension with XNTPs, 1 hr at 23° C., additives typically tested in the micro to millimolar range

Compound	Extension Effect (DNA polymerase [1]; [3])	other results
CDPI3 [reference compound]	Variable effects	
C[N+](C)(C)[O-] [TMAO]	Variable effects	
C[S+](C)[O-] [DMSO]	Length increases	
CC(=O)NCC(=O)O.CC(=O)NCC(=O)O.N=C(N)c1ccc(N=NNc2ccc(C(=N)N)cc2)cc1 [Diminazine Aceturate, reference compound]	No effect	
CC1COC(=O)O1 (stereo not drawn) [Propylene carbonate]	Inhibitory	
CCCCCCCCCCCC[N+](C)(C)C.[Cl-] [Dodecyltrimethylammonium chloride]	Inhibitory	
Triton	No effect	
O=S(=O)([O-])CCC[n+]1ccccc1 [3-(1-pyridinio)-1-propanesulfonate]	No effect	
O=C(/C=C/C=C/c1ccc2c(c1)OCO2)N1CCCCC1 [Piperdine]	Inhibitory	
CC(C)=O [Acetone]	Beneficial	
Cn1cc(NC(=O)c2cc(NC(=O)CN=C(N)N)cn2C)cc1C(=O)NCCC(=N)N [Netropsin dihydrochloride, reference compound]	Beneficial	enhancement of XNTP polymerization in titration (DNA polymerase [1]): dose-dependent enhancement; effect on primer extension with XNTPs (summary of additive screen) (DNA polymerase [1]; additive screen): significantly and reproducibly enhanced
CCCCCCCc1ccc(C(O)CC[N+](C)(C)CCCS(=O)(=O)[O-])cc1 (stereo not drawn) [C7BzO]	No effect	
NC(COP(=O)(O)O)C(=O)O (racemic) [O-phospho-DL-serine]	Inhibitory	
C[N+](=O)[O-] [Nitromethane]	Inhibitory	
CC(=O)O.CCN(CC)CC [Triethylamine acetate]	Inhibitory	
NC(N)=O [Urea]	Beneficial	
N[C@@H](Cc1ccc(OP(=O)(O)O)cc1)C(=O)O [O-Phospho-L-tyrosine]	Inhibitory	
CN1CCN(c2ccc3[nH]c(-c4ccc5[nH]c(-c6ccc(O)cc6)nc5c4)nc3c2)CC1 [Hoescht Stain solution 33258, reference compound]	Beneficial	enhancement of XNTP polymerization in titration (DNA polymerase [1]): dose-dependent enhancement; effect on primer extension with XNTPs (summary of additive screen) (DNA polymerase [1]; additive screen): significantly and reproducibly enhanced; amount of MGB demonstrating reliable enhancement of XNTP polymerization (DNA polymerase [1]): 0.6 mM; accuracy of sequence reads of SBX sequencing (DNA polymerase [2]): increased the accuracy of the sequence reads completely to the end of the 45 mer template
C[N+](C)(C)C.[Cl-] [TMACl]	No effect	
CCCCCCCCCCCCN(C)CC(=O)O [N-Lauryl Sarcosine]	Inhibitory	
N=C(N)c1ccc(OCCCCCOc2ccc(C(=N)N)cc2)cc1 [Pentamidine isethionate salt, reference compound]	No effect	
CCOc1ccc(-c2nc3ccc(-c4nc5ccc(N6CCN(C)CC6)cc5[nH]4)cc3[nH]2)cc1 [Hoescht Stain solution 33342, reference compound]	Beneficial	enhancement of XNTP polymerization in titration (DNA polymerase [1]): dose-dependent enhancement; effect on primer extension with XNTPs (summary of additive screen) (DNA polymerase [1]; additive screen): significantly and reproducibly enhanced; amount of MGB demonstrating reliable enhancement of XNTP polymerization (DNA polymerase [1]): 0.8 mM
OCC(O)CO [Glycerol]	No effect	

Compound	Extension Effect (DNA polymerase [1]; [3])	other results
CCCCCC(=O)[O-].[Na+] [Sodium Hexanoate]	No effect	
CN1CCN(c2ccc3nc(-c4ccc5nc(-c6ccc(N(C)C)cc6)[nH]c5c4)[nH]c3c2)CC1 [Hoescht Stain solution 34580, reference compound]	Beneficial	effect on primer extension with XNTPs (summary of additive screen) (DNA polymerase [1]; additive screen): significantly and reproducibly enhanced
CN(C)C=O [Dimethylformamide]	No effect	
CCCCCCCCCCCCC/C=C/[C@@H](O)[C@@H](N)CO [Sphingosine]	No effect	
C1CCOC1 [Tetrahydrofuran]	No effect	
[Cl-].[Na+] [NaCl]		Extension Effect (DNA polymerase [1]): Beneficial
CC#N [Acetonitrile]	No effect	
C[N+](C)(C)CC(=O)O [Betaine]	Inhibitory	
[Mg+2] [Magnesium]	Inhibitory	
C[N+](C)(C)CC(=O)NN.[Cl-] [Girards Reagent T]	No effect	
c1c[nH]cn1 [Imidazole]	No effect	
N=C(N)NCCC[C@H](N)C(=O)O [Arginine]	Inhibitory	
CN1C(=O)CCC1=O [N-methyl succinimide]	Beneficial	
N=C(N)c1ccc(-c2cc3ccc(C(=N)N)cc3[nH]2)cc1 [DAPI, reference compound]	No effect	effect on XNTP polymerization reaction, gel of FIG. 4 (extension product length vs no-additive lane 1, around 14 XNTPs) (DNA polymerase [1]; FIG. 4 representative gel): inhibitory effect
Nc1cc(C(=O)O)cc(C(=O)O)c1 [5-Aminoisophthalic acid]	Inhibitory	
Nc1cc(C(=O)O)ccc1C(=O)O [2-Aminoterephthalic acid]		Extension Effect (DNA polymerase [1]): Inhibitory
CCCCCCCCCCCCCC(=O)NCCC[N+](C)(C)CCCS(=O)(=O)[O-] [ASB-14 (amidosulfobetaine)]	No effect	
[Cl-].[K+] [Potassium Chloride]	No effect	
O=S(=O)([O-])[O-].[Ni+2] [NiSO4]	Inhibitory	
Cl.Nc1ccc2cc3ccc(N)cc3nc2c1 [3,6-Diaminoacridine Hydrochloride, reference compound]	Beneficial	effect on primer extension with XNTPs (summary of additive screen) (DNA polymerase [1]; additive screen): significantly and reproducibly enhanced
CCCCCCCCCCCCOS(=O)(=O)[O-].[Na+] [Sodium docecyl sulfate]	No effect	
NCc1ccccc1 [Benzylamine]	No effect	
